In PubChem BioAssay (NCI) one finds TGI and GI50 data, which are given here for eight molecules.

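96-well plates; 48 h exposure; 5 concentrations. Endpoints by linear interpolation between flanking doses. Not reached: highest tested concentration assigned. Abbreviation: GI50, concentration required for 50% inhibition of growth. TGI denotes the concentration required for complete inhibition of growth.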

Test systems include RPMI-8226 leukemia; SNB-19 CNS; NCI-H460 lung; ACHN renal; HL-60(TB) leukemia; SNB-75 CNS; CAKI-1 renal; HOP-92 NSCLC; MDA-MB-435; M14 melanoma.
What all share (assay): growth of human tumour cells (NCI), 48 h

For the molecule `NS(=O)(=O)c1cc(C(=O)O)c(Cl)c([N+](=O)[O-])c1Cl`, the TGI in the test with RPMI-8226 leukemia, in the test on SNB-19 CNS, with NCI-H460 lung, with ACHN renal, in the test on HL-60(TB) leukemia and with SNB-75 CNS was over 100 µM each time. Also, the TGI in the test with CAKI-1 renal, in the test with HOP-92 NSCLC, in the test on MDA-MB-435 and in the test on M14 melanoma was over 100 µM each time.

`COC(=O)[C@H](CCCCNC(=O)OCc1ccccc1)NC(=O)[C@@H](NC(=O)Nc1cc(C(F)(F)F)cc(C(F)(F)F)c1)C(C)C`: the GI50 in the test on RPMI-8226 leukemia was over 10000 nM; in the test on SNB-19 CNS, over 10 µM; in the test with NCI-H460 lung it was over 10000 nM; in the test on ACHN renal, over 10 µM; in the test with HL-60(TB) leukemia, over 10 µM; in the test with SNB-75 CNS it was over 10000 nM. In addition, the GI50 in the test on CAKI-1 renal is over 10 µM; in the test with HOP-92 NSCLC it was over 10 µM; with MDA-MB-435 it was over 10000 nM; with M14 melanoma it was over 10 µM. For the same molecule, the TGI in the test on RPMI-8226 leukemia, in the test with SNB-19 CNS, in the test with NCI-H460 lung, with ACHN renal, with HL-60(TB) leukemia and in the test on SNB-75 CNS was over 10 µM each time. For the same molecule, the TGI in the test on CAKI-1 renal, with HOP-92 NSCLC, in the test with MDA-MB-435 and in the test on M14 melanoma was over 10 µM each time.

Take `NC(=O)c1ncn2c(=O)n(CCCl)nnc12`: the TGI with RPMI-8226 leukemia was 1250 µM; in the test with SNB-19 CNS it was 995 µM; with NCI-H460 lung it was 221 µM; in the test on ACHN renal, 385 µM; with HL-60(TB) leukemia, 223 µM; with SNB-75 CNS, 205 µM. For the same molecule, the TGI is 548 µM in the test on CAKI-1 renal, 408 µM in the test on HOP-92 NSCLC, 388 µM in the test on MDA-MB-435 and 500 µM with M14 melanoma. Further, the GI50 in the test on SNB-19 CNS was 69 µM; with ACHN renal it was over 71.2 µM; in the test on SNB-75 CNS, 23700 nM; with CAKI-1 renal it was 91.4 µM.

As for `C[C@@H](Oc1cc(-c2cnn(C3CCNCC3)c2)cnc1N)c1c(Cl)cc(F)cc1Cl`, the GI50 with RPMI-8226 leukemia is 2410 nM; in the test on SNB-19 CNS, 3.46 µM; with NCI-H460 lung it was 902 nM; in the test on ACHN renal, 2.61 µM; in the test with HL-60(TB) leukemia, 0.917 µM; with SNB-75 CNS, 1650 nM. For the same molecule, the GI50 is 3.17 µM in the test on CAKI-1 renal, 0.73 µM with HOP-92 NSCLC, 749 nM in the test on MDA-MB-435 and 1.54 µM with M14 melanoma. For the same molecule, the TGI was 8.6 µM in the test with RPMI-8226 leukemia; 14.3 µM with SNB-19 CNS; 5.4 µM in the test on NCI-H460 lung; 12 µM in the test with ACHN renal; 2.95 µM in the test with HL-60(TB) leukemia; 4.38 µM in the test with SNB-75 CNS. The TGI is 12.6 µM in the test with CAKI-1 renal, 3.6 µM in the test on HOP-92 NSCLC, 9.42 µM with MDA-MB-435 and 3.23 µM in the test with M14 melanoma.

As for `CCC(=C(c1ccc(OCCN2CCCC2)cc1)c1ccc(OCCN2CCCC2)cc1)c1ccc(Cl)cc1`, the GI50 was 674 nM in the test on RPMI-8226 leukemia; 0.624 µM in the test on SNB-19 CNS; 624 nM with NCI-H460 lung; 0.585 µM in the test on ACHN renal; 0.606 µM with HL-60(TB) leukemia; 921 nM in the test on SNB-75 CNS. Further, the GI50 is 0.52 µM in the test with CAKI-1 renal, 0.482 µM with HOP-92 NSCLC, 552 nM in the test with MDA-MB-435 and 0.629 µM with M14 melanoma. Besides, the TGI in the test on RPMI-8226 leukemia is 1.53 µM; in the test on SNB-19 CNS, 1.19 µM; in the test with NCI-H460 lung, 1.18 µM; in the test on ACHN renal, 1.06 µM; in the test with HL-60(TB) leukemia, 1.27 µM; in the test on SNB-75 CNS, 2.61 µM. The TGI in the test with CAKI-1 renal stood at 0.992 µM; with HOP-92 NSCLC it was 1.04 µM; in the test on MDA-MB-435, 1.03 µM; in the test with M14 melanoma it was 1.18 µM.

For `COc1ccc2c(c1)C(=O)c1c-2n(CCCCl)c(=O)c2cc(N)ccc12`, the GI50 in the test with RPMI-8226 leukemia was over 100000 nM; in the test with SNB-19 CNS, over 100 µM; with NCI-H460 lung it was over 100000 nM; in the test on ACHN renal it was 98.4 µM; in the test with HL-60(TB) leukemia, over 41.3 µM; in the test with SNB-75 CNS it was over 51700 nM. The GI50 was over 100 µM with CAKI-1 renal, 21.2 µM in the test with HOP-92 NSCLC, over 100000 nM in the test with MDA-MB-435 and over 100 µM in the test on M14 melanoma. The TGI with RPMI-8226 leukemia is over 100 µM; with SNB-19 CNS, over 100 µM; in the test with NCI-H460 lung, over 100 µM; in the test on ACHN renal it was over 100 µM; in the test with HL-60(TB) leukemia, over 59.1 µM; with SNB-75 CNS, over 85.7 µM. For the same molecule, the TGI in the test on CAKI-1 renal, in the test with HOP-92 NSCLC, with MDA-MB-435 and in the test on M14 melanoma was over 100 µM in each case.

Consider `Cc1cn2c(/C=C3\C(=O)N(C)c4ccc(Cl)cc43)c(C)nc2s1`, for which the GI50 is 2840 nM in the test with RPMI-8226 leukemia; 4.25 µM in the test with SNB-19 CNS; 2860 nM in the test with NCI-H460 lung; 4.62 µM in the test on ACHN renal; 3.36 µM in the test on HL-60(TB) leukemia; 2520 nM in the test with SNB-75 CNS. In addition, the GI50 in the test with CAKI-1 renal was 3.11 µM; with HOP-92 NSCLC, 6.3 µM; with MDA-MB-435 it was 1940 nM; in the test with M14 melanoma, 3.3 µM. The TGI with RPMI-8226 leukemia was 9.4 µM; with SNB-19 CNS, 92.9 µM; in the test with NCI-H460 lung, 15.3 µM; in the test on ACHN renal, 32.6 µM; in the test with HL-60(TB) leukemia, over 100 µM; in the test with SNB-75 CNS, 7.32 µM. The TGI in the test with CAKI-1 renal is over 100 µM; in the test with HOP-92 NSCLC, 45.4 µM; in the test with MDA-MB-435 it was 5.66 µM; in the test on M14 melanoma, 32.1 µM.

In the case of `CC(C)(C)OC(=O)N1Cc2cc3ccccc3nc2C1CO` (centres undefined), the GI50 with RPMI-8226 leukemia is over 100000 nM; in the test on SNB-19 CNS, over 100 µM; in the test on NCI-H460 lung, over 100000 nM; in the test on ACHN renal, over 100 µM; in the test on HL-60(TB) leukemia, over 100 µM; with SNB-75 CNS, over 100000 nM. Besides, the GI50 with CAKI-1 renal is over 100 µM; with HOP-92 NSCLC it was 57.8 µM; in the test on MDA-MB-435, over 100000 nM; in the test with M14 melanoma, over 100 µM. Also, the TGI in the test on RPMI-8226 leukemia, in the test with SNB-19 CNS, in the test with NCI-H460 lung, with ACHN renal, in the test with HL-60(TB) leukemia and in the test with SNB-75 CNS was over 100 µM each time. Moreover, the TGI in the test on CAKI-1 renal, in the test with HOP-92 NSCLC, in the test on MDA-MB-435 and with M14 melanoma was over 100 µM in each case.
